Results from ChEMBL document CHEMBL1201862, “PubChem BioAssay data set” (2004).
The source made the active and inactive calls.

What was measured:
T-cell = experiment: inhibitors of CD8+ T cell–vesicle binding, dose response, mouse 2C CD8+ T cells, flow cytometry (AID 485284); type: functional
[1] = molecular target: 1-acylglycerol-3-phosphate O-acyltransferase ABHD5/Perilipin-5 (Homo sapiens, UniProt Q00G26+Q8WTS1); experiment: Luminescence-based biochemical high throughput dose response assay for inhibitors of the interaction of the lipase co-activator protein, abhydrolase domain containing 5 (ABHD5) with perilipin-5 (MLDP; PLIN5) (2K validation set). [Related pubchem assays (depositor defined):AID493035, AID493241]
Perilipin-1/ABHD5 = Perilipin-1/ABHD5 (Homo sapiens, UniProt O60240+Q8WTS1); experiment: Luminescence-based biochemical high throughput dose response assay for inhibitors of the interaction of the lipase co-activator protein, abhydrolase domain containing 5 (ABHD5) with perilipin-1 (PLIN1) (2K validation set). [Related pubchem assays (depositor defined):AID493027, AID493057]
Troponin, cardiac muscle = Troponin, cardiac muscle (Homo sapiens, UniProt P19429+P45379+P63316); experiment: Fluorescence-based biochemical high throughput dose response assay for activators of the calcium sensitivity of cardiac Regulated Thin Filaments (RTF). [Related pubchem assays (depositor defined):AID493008, AID493018, AID504382, AID504383]; type: protein-complex assay
Mu-type opioid receptor = Mu-type opioid receptor (Homo sapiens, UniProt P35372); experiment: SAR Analysis of Antagonists of the MOR Receptor using an Image-Based Assay - Set 3. [Related pubchem assays (depositor defined):AID1777, AID1785, AID1786, AID1966, AID2133, AID2136, AID2284, AID2285, AID2420]; type: functional
[2] = molecular target: Delta-type opioid receptor (Homo sapiens, UniProt P41143); experiment: SAR Analysis of Antagonists of the DOR Receptor using an Image-Based Assay - Set 3. [Related pubchem assays (depositor defined):AID1777, AID1785]; type: functional;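 note: U2OS cells expressing DOR1 and beta-arrestin GFP stimulated with 100 nM SNC80; imaging of GFP-tagged beta-arrestin moving into spots after receptor activation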
[3] = molecular target: T1, Kappa-type opioid receptor (Homo sapiens, UniProt P41145); experiment: SAR analysis of small molecule antagonists of the kappa opioid receptor via a luminescent beta-arrestin assay - Set 3. [Related pubchem assays (depositor defined):AID1777, AID1778, AID1785, AID1786, AID1966, AID2133, AID2136, AID2285, AID2495]; type: functional
[4] = molecular target: T1, Kappa-type opioid receptor; experiment: SAR analysis of Antagonists of the Kappa Opioid Receptor (KOR) using an Image-Based Assay - Set 3. [Related pubchem assays (depositor defined):AID1777, AID1785]; type: functional
[5] = Luminescence Cell-Based Dose Retest to Confirm Inhibitors of Cancer Stem Cells. [Related pubchem assays (depositor defined):AID2717, AID2721]; type: functional; details: Homo sapiens
[6] = Intein inhibitors as potential Tuberculosis drugs, a cytotoxicity screen. [Related pubchem assays (depositor defined):AID2221, AID2223, AID434968, AID435010, AID449749, AID449750, AID489010]; type: functional
[7] = molecular target: T2, Replicative DNA helicase DnaB (Mycobacterium tuberculosis, UniProt P9WMR3); experiment: DnaB intein splicing inhibitors, dose response, biochemical, cell-free fluorescence (AID 449749); type: functional
T2 sequence (P9WMR3 whole entry): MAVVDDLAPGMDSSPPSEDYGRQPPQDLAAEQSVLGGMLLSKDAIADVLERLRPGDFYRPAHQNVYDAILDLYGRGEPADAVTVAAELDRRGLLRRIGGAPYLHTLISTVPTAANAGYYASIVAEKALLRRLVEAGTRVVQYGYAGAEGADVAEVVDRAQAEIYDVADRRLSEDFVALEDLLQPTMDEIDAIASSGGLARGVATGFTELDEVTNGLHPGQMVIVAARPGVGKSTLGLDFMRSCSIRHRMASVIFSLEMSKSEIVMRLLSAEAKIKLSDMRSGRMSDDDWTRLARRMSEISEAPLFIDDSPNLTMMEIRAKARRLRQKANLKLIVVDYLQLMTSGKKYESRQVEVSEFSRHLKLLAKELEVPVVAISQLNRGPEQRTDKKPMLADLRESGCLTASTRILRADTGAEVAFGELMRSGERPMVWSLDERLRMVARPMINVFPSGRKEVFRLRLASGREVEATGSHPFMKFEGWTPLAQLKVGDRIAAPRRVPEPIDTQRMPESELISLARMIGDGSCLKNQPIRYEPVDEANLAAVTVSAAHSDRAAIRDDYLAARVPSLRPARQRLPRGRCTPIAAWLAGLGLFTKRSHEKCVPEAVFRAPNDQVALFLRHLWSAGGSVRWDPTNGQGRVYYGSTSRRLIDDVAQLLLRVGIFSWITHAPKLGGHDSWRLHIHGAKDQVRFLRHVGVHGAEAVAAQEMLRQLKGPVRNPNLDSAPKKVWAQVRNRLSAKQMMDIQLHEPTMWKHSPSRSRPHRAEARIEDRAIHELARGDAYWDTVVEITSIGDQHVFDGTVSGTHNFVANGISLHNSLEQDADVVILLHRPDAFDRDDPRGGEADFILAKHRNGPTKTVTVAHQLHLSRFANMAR

Vero = Vero cell cytotoxicity, cytotoxicity control for flavivirus capping enzyme inhibitors (AID 588742); type: functional; details: Chlorocebus sabaeus
Protein RecA = molecular target: T3, Protein RecA (Mycobacterium tuberculosis, UniProt P9WHJ3); experiment: Fluorescence Cell-Free Homogeneous Dose Retest to Identify Inhibitors of RecA-Intein Splicing Activity. [Related pubchem assays (depositor defined):AID2097, AID2223, AID489010, AID492950]; type: functional
T3 sequence (P9WHJ3 whole entry): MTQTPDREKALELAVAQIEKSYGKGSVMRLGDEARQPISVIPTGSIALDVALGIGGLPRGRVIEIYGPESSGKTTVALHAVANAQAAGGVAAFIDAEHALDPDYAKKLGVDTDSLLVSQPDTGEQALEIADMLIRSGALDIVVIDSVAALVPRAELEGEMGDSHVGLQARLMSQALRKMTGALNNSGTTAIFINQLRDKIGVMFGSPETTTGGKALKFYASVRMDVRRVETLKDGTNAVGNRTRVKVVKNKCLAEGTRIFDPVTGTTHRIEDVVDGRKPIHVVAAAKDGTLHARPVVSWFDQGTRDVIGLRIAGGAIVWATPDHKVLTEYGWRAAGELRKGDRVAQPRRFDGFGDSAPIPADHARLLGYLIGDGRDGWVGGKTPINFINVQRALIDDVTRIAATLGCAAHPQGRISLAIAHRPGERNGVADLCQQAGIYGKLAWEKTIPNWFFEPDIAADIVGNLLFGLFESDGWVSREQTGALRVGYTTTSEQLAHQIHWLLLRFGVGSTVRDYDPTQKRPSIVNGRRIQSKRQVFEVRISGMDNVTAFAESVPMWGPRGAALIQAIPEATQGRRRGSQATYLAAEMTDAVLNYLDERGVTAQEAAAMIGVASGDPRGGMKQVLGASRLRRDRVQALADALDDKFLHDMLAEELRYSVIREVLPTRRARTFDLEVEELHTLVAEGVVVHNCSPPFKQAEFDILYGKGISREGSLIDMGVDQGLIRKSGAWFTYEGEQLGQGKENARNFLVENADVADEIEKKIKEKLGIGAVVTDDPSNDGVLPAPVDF

INS1 = experiment: beta cell apoptosis inhibitors, cytokine rescue, dose response, luminescence, retest (AID 449756); type: functional, cell-based; details: Rattus norvegicus;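 note: cell death triggered by IL-1 beta plus TNF-alpha plus IFN-gamma mixture; protective hits raise ATP signal compared with cytokine alone wells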
Genome polyprotein = Genome polyprotein (dengue virus type 2, UniProt P29990); experiment: Dengue-2 NS5 methyltransferase inhibitors, primary screen, biochemical, confirmation dose response (AID 588689); type: functional
[8] = HepG2 cell cytotoxicity, dose response, cytotoxicity control, ATP luminescence, cherry-pick, activator set 2 (AID 1053143); type: functional, cell-based
[9] = molecular target: T4, E3 ubiquitin-protein ligase XIAP (Homo sapiens, UniProt P98170); experiment: Counter Screen using XIAP-Bir3 for Chemical Antagonists of Bir1/2 domains of IAP-family anti-apoptotic proteins. [Related pubchem assays (depositor defined):AID1018, AID1449, AID1514, AID1638, AID1749, AID1750, AID488957, AID488963]
[10] = molecular target: T4, E3 ubiquitin-protein ligase XIAP; experiment: XIAP antagonists, biochemical, IAP family, fluorescence polarization (AID 1018); type: functional
[11] = system: Streptococcus sp. 'group A'; experiment: growth inhibition of control SK(-) GAS strain, dose response, counter-screen for streptokinase expression inhibitor project, luminescence, kanamycin, BacTiterGlo, confirmation (AID 1900); type: functional, organism-based
[12] = inhibitors of intracellular T. cruzi replication, confirmation, NIH3T3 host cells, beta-gal luminescence (AID 2044); type: functional, cell-based;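 note: intracellular parasites grown in NIH/3T3 mouse fibroblasts as host cells; luminescent beta-galactosidase reporter signal from transgenic T. cruzi replicating inside host cells; inhibitors lower the luminescence signal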
[13] = cytotoxicity toward NIH3T3 fibroblasts, dose response, counter-screen, cell-based, ATP luminescence, mouse fibroblasts (AID 2010); type: functional;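 note: cells exposed to compound for about 90 hours before reading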
Streptococcus = experiment: Group A Streptococcus viability loss, dose response, counter-screen for streptokinase expression inhibitor project, luminescence, BacTiterGlo (AID 1915); type: functional, organism-based;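 note: potency for reduction of bacterial viability or growth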
[14] = mammalian cell cytotoxicity, dose response, cytotoxicity control, plate reader, cherry-pick samples (AID 504397); type: functional, cell-based
CAAX prenyl protease 2 = molecular target: T5, CAAX prenyl protease 2 (Homo sapiens, UniProt Q9Y256); experiment: human Rce1 protease inhibitors, dose response, biochemical, yeast membranes, quenched-peptide fluorescence, cherry-pick (AID 588849)
T5 sequence (Q9Y256 whole entry): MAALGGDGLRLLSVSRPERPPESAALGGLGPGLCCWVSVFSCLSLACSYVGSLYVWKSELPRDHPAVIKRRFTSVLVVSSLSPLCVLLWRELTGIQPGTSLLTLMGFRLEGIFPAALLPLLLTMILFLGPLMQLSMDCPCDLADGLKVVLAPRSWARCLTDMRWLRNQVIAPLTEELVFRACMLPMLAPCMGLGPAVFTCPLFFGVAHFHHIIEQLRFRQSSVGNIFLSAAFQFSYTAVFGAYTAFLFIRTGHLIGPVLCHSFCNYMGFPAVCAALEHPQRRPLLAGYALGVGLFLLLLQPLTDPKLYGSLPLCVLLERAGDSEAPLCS

Coagulation factor XII = molecular target: T6, Coagulation factor XII (Homo sapiens, UniProt P00748); experiment: Factor XIIa Dose Response Confirmation from Single Well HTS. [Related pubchem assays (depositor defined):AID701]; type: functional
T6 sequence (P00748 whole entry): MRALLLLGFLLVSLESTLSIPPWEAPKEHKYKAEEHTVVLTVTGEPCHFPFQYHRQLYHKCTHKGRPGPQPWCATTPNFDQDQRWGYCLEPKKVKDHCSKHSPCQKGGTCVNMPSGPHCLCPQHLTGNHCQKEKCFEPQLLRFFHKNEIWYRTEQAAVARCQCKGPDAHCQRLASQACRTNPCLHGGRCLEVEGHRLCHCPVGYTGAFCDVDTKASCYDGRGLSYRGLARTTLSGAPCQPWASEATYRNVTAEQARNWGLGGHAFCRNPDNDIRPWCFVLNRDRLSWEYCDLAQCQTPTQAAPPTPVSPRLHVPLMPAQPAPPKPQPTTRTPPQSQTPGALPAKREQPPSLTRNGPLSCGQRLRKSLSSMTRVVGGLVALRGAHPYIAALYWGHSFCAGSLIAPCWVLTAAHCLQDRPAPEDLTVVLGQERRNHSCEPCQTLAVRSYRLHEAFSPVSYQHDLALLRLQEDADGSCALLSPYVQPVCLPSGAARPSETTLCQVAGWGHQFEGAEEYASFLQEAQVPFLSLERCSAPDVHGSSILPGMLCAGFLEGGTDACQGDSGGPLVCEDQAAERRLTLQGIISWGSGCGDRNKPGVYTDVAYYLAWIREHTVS

Question: For `CCOC(=O)c1c(C=O)c2ccccc2n1CC`, which EC50 (T-cell) is on record?
Answer: 27.8 µM (inactive)

Question: Which IC50 [1] does the source give for `COC(=O)[C@@H](N)CS` here?
Answer: 4.64 µM (active)

Question: What about the IC50 (Perilipin-1/ABHD5) of the same compound?
Answer: 7.34 µM (active)

Question: Which EC50 (Troponin, cardiac muscle) does the source give for `Cc1ccnc2nc(C(=O)OCC(=O)NCCc3ccccc3)nn12` here?
Answer: > 71.5 µM (inactive)

Question: What does the source list for `CCc1ccc(S(=O)(=O)NCc2ccc(C(=O)NCCN(CC)Cc3ccccc3)cc2)cc1`?
Answer: IC50 (Mu-type opioid receptor): 19.5 µM (inactive); IC50 [2]: > 32 µM (inactive); IC50 [3]: 14.4 µM (inactive); IC50 [4]: 1.99 µM (active)

Question: For `COC(=O)c1sc(-c2ccc(C(C)(C)C)cc2)cc1NC(=O)/C=C/C(=O)O`, which AC50 [5] is on record?
Answer: 3.96 µM (active)

Question: And the CC50 [6]?
Answer: 11.5 µM (active)

Question: And the AC50 [7]?
Answer: 2.55 µM (active)

Question: And the CC50 (Vero)?
Answer: 14.1 µM (active)

Question: What about the EC50 (Protein RecA) of the same compound?
Answer: 0.701 µM (active)

Question: And the AC50 (INS1)?
Answer: 4.68 µM (active)

Question: And the IC50 (Genome polyprotein)?
Answer: 65.2 µM (active)

Question: What about the AC50 [8] of the same compound?
Answer: 23.4 µM (active)

Question: For `CC(=O)NCCc1nc2ccccc2n1CCc1ccccc1`, which IC50 [9] is on record?
Answer: > 100 µM (inactive)

Question: And the IC50 [10]?
Answer: > 100 µM (not active)

Question: Which results are given for `C/C(Cl)=C\Cn1c(O)c(/N=N/C(=N)S)c2cc(Br)ccc21`?
Answer: EC50 [11]: 1.26 µM (active); EC50 [12]: 1.32 µM (active); EC50 [13]: > 30 µM (not active); EC50 (Streptococcus): 3.93 µM (active); AC50 [14]: 281 µM (active); AC50 (CAAX prenyl protease 2): 12.6 µM (active)

Question: Which IC50 (Coagulation factor XII) does the source give for `CC(C)C(C)(C#N)NC(=O)CSc1nnc(C(F)(F)F)n1C` (stereo not given) here?
Answer: > 50 µM (inactive)
